Assay results published in ChEMBL document CHEMBL3988442, “University of Dundee, Small-Polar-MMV Screening Library” (2021).
Where “and” joins values, the source holds several entries; their conditions need not be identical. Equal entries are not always repeated.

What was measured:
[1] = To identify inhibition of the IFN signalling (Jak-Stat) pathway via expression of an eGFP reporter gene under the control of an IFN-stimulated response element (ISRE) containing MxA promoter.; assay type: functional, Homo sapiens
Proteasome subunit beta = target: T1, Proteasome subunit beta (Trypanosoma cruzi, UniProt O96673); assay: Trypanosoma cruzi proteasome chymotrypsin-like activity (TcProtChymo) assay.; assay type: functional
T1 sequence (O96673 whole entry): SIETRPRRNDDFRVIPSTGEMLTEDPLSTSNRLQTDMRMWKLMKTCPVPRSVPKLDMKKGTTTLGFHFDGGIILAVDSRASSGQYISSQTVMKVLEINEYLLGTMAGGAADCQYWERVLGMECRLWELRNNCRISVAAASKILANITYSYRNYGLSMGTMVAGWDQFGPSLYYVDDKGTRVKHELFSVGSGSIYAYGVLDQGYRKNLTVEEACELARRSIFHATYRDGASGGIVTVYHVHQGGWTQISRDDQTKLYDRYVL

[2] = Trypanosoma cruzi proteasome luciferase counter-screen; assay type: functional, N/A
Lysine--tRNA ligase = Lysine--tRNA ligase (Plasmodium falciparum (isolate 3D7), UniProt Q8IDJ8); assay: Pf-KRS-1 (Lysyl-RNA Synthetase-1, KRS-1, cytosolic KRS) from Plasmodium falciparum. Inhibitor assay, 384 well plate, luminescence read.; assay type: functional
Lysine--tRNA ligase, sequence (Q8IDJ8 whole entry): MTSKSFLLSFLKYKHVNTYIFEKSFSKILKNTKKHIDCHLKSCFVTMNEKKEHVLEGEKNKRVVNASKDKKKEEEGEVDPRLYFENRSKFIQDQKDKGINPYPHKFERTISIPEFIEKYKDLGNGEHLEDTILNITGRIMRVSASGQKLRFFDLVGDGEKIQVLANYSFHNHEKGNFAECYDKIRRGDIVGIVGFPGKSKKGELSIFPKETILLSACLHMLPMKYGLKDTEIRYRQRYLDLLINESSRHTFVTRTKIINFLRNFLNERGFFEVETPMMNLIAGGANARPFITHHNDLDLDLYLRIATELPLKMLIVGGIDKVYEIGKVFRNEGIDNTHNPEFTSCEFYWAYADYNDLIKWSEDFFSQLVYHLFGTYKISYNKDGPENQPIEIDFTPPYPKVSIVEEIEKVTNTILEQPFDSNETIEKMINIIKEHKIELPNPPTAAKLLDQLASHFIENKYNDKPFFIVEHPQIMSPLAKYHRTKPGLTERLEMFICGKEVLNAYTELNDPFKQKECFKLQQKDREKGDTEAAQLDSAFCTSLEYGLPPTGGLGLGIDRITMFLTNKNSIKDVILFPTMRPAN

Leishmania donovani = assay: Leishmania intramacrophage assay; assay type: functional, organism-based; conditions: Leishmania donovani
[3] = microbe, parasite or virus in culture; conditions: Mycobacterium tuberculosis, 96 h, read-out: pIC50 (converted)
[4] = microbe, parasite or virus in culture; conditions: Mycobacterium tuberculosis, 72 h, read-out: pIC50 (converted)
Histidine--tRNA ligase = target: T2, Histidine--tRNA ligase (Leishmania infantum, UniProt A4I591); assay: Leishmania infantum Histidine tRNA synthetase (LdHisRS); assay type: functional
T2 sequence (A4I591 whole entry): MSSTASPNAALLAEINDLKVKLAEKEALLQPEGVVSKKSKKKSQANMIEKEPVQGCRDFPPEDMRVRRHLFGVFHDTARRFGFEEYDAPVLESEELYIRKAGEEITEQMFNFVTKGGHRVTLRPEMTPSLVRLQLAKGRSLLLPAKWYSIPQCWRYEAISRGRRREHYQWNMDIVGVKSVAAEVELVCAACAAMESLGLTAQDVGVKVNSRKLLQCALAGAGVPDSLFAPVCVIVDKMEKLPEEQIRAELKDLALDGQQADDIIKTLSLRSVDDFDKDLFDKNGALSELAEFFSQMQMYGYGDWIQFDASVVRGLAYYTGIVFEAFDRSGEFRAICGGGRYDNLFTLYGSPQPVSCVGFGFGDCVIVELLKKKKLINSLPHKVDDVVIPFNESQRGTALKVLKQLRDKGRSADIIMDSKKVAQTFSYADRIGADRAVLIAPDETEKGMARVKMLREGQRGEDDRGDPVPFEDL

[5] = target: Chromo domain-containing protein 1 (Saccharomyces cerevisiae (strain ATCC 204508 / S288c) (Baker's yeast), UniProt P32657); assay: ScCHD-1 Enzyme Inhibition Assay; assay type: functional
Chromo domain-containing protein 1, sequence (P32657 whole entry, the tested form may be a part): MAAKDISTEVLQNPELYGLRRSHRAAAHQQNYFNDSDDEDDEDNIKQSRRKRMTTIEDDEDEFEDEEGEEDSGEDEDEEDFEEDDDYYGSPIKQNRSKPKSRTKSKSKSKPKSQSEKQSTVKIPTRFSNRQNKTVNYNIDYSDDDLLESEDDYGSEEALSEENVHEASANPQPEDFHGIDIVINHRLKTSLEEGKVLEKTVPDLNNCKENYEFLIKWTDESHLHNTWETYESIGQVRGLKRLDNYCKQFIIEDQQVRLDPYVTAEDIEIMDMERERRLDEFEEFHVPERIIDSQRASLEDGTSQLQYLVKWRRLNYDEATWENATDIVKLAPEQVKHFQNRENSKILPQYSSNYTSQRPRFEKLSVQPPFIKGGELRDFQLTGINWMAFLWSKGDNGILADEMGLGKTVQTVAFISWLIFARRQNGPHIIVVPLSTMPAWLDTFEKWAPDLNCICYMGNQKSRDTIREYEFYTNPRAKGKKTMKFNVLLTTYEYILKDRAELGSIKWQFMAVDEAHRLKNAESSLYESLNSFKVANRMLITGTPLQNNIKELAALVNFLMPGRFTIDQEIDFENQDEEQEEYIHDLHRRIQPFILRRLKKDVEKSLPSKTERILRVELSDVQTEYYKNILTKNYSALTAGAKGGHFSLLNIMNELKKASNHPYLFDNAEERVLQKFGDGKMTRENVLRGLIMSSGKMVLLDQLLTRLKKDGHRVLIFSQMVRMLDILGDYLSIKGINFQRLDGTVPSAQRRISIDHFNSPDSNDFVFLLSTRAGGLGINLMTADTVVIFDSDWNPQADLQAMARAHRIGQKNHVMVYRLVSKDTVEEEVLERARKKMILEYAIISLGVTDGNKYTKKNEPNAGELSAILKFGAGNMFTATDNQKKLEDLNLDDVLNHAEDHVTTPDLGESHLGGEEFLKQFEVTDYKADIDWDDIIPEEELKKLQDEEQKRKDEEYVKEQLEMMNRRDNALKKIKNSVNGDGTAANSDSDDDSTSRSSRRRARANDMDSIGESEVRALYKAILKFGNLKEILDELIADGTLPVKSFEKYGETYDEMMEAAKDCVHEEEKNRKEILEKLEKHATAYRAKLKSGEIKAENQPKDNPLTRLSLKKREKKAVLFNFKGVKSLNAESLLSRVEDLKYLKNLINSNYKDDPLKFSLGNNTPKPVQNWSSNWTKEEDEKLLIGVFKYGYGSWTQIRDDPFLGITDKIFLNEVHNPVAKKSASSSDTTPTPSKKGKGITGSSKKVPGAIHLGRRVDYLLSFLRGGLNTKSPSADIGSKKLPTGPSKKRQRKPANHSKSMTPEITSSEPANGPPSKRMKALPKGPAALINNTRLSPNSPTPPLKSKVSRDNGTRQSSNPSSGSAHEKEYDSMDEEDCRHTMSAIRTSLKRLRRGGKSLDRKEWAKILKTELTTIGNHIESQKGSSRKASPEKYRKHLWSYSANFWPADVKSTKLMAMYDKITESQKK

ClpP1P2 = ClpP1P2 (Mycobacterium tuberculosis (strain ATCC 25618 / H37Rv), UniProt P9WPC3+P9WPC5); assay: in vitro assay to detect presence of AMC directly proportional to the activity of ClpP1P2. GHDDI collaboration.; assay type: functional
ClpP1P2, sequence (P9WPC5 whole entry): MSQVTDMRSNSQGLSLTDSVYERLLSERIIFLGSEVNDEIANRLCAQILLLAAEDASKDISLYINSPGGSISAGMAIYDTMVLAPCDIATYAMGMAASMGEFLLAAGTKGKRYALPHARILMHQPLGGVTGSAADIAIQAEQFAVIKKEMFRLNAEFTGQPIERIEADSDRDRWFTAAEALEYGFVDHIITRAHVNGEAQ
ClpP1P2, sequence (P9WPC3 whole entry): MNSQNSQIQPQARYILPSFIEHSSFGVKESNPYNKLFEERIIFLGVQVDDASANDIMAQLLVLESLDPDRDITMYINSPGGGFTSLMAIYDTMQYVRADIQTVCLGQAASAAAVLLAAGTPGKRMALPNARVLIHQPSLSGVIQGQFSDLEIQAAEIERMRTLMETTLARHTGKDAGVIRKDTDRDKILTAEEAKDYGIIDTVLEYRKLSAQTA

Wolbachia pipientis = assay: Anti-Wolbachia Cell-Based Screen; assay type: functional; conditions: Wolbachia pipientis
[6] = target: Polyketide synthase Pks13 (Mycobacterium tuberculosis (strain ATCC 25618 / H37Rv), UniProt I6X8D2); assay: Mycobacterium tuberculosis Polyketide synthase 13 Thioesterase (PKS13); assay type: functional
Polyketide synthase Pks13, sequence (I6X8D2 whole entry): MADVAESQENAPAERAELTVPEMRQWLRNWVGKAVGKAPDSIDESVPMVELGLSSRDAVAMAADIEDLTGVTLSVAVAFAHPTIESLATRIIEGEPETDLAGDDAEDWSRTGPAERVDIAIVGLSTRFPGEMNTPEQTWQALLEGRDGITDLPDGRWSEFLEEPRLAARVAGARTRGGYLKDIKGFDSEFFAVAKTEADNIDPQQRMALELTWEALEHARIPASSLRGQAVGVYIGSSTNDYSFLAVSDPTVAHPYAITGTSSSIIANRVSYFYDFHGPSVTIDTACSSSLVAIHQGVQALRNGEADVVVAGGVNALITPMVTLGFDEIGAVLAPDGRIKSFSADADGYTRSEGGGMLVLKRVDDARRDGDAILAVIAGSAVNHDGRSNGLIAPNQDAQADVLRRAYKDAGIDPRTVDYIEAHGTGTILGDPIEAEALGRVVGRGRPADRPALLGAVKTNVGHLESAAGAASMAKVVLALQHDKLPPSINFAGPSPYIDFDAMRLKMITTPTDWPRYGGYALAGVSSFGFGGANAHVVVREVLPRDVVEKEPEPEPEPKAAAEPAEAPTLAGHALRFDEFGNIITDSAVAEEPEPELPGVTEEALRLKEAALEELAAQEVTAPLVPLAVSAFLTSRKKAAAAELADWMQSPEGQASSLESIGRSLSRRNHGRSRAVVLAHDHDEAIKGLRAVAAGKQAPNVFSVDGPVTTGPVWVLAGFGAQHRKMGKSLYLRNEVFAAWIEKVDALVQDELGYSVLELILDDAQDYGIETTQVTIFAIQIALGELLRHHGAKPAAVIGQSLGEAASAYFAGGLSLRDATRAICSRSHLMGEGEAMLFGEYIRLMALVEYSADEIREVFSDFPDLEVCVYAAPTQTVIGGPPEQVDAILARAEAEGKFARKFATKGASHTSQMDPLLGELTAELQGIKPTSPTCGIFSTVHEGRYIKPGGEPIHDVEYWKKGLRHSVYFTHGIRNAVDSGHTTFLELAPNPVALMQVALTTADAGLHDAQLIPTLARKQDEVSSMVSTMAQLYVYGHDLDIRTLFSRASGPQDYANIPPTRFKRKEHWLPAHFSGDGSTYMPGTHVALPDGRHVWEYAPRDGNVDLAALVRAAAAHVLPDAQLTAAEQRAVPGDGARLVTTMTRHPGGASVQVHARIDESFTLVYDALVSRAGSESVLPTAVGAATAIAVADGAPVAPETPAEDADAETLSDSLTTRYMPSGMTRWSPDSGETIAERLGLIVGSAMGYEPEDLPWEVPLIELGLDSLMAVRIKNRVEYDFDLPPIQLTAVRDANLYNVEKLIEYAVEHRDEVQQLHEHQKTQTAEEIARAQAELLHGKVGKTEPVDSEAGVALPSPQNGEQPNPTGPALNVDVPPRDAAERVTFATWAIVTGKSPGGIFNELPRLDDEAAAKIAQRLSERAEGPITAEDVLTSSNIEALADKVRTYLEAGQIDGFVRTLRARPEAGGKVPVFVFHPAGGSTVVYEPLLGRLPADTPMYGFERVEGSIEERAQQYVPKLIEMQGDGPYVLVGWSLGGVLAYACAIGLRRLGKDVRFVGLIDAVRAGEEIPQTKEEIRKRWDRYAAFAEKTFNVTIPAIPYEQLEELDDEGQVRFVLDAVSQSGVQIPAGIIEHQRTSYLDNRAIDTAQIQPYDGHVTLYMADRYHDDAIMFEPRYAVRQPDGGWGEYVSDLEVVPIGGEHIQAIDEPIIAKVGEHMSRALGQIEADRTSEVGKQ

Row | SMILES | pIC50 [1] | IC50 (Proteasome subunit beta) | pIC50 [2] | also measured
1 | CC(C)c1nc(C2CCCN(C(=O)CCCn3cncn3)C2)no1 (centres undefined) | < 4.21 |  |  | 
2 | CN(C)c1cc(CNC(=O)Nc2ccc(F)cc2)ccn1 |  | 14.4 µM and 16.9 µM | 4.234 and 4.227 | 
3 | Cc1cc(C(C)C(=O)N2CCCN(Cc3cscn3)CC2)c(C)o1 (centres undefined) |  | > 100 µM | < 4 | 
4 | Cc1ccc(C(=O)Nc2cn[nH]c2)cc1C |  | 13.3 µM and 12.6 µM | 4.136 and 4.208 | 
5 | CCOc1ccc(S(=O)(=O)NCc2cccnc2N(C)C)cc1 | 5.549 and 5.242 |  |  | IC50 (Lysine--tRNA ligase): > 50.1 µM; IC50 (Leishmania donovani): > 50.1 µM
6 | Cc1noc(NC(=O)c2ccc(C)c(F)c2)n1 | 4.682 and < 4.57 |  |  | IC50 [3]: 27.1 µM; IC50 [4]: 30.5 µM
7 | Cc1cnn(CC2CN(c3cnc4ccccc4n3)CCO2)c1 (centres undefined) |  | 17.8 µM and 19.4 µM | 4.14 and 4.151 | IC50 [3]: 14.4 µM; IC50 [4]: 16.4 µM
8 | CC(C)c1n[nH]c(C(=O)Nc2ccncc2)c1Br | 4.519 and 4.533 |  |  | IC50 (Leishmania donovani): > 50.1 µM
9 | COc1cccc(CNc2cnn(C)c(=O)c2Cl)c1 | 4.709 and 5.107 |  |  | 
10 | O=C(C1CCN(c2snc3ccccc23)CC1)N1CCCCCC1 | 4.575 and 4.655 |  |  | 
11 | Cc1cc(C(=O)N2CCc3nnc(N)cc3C2)c(C)n1-c1cccnc1 |  | > 100 µM | < 4 | 
12 | Cc1ccc(-c2nc(CN3CCC(C(=O)N(C)C)CC3)cs2)o1 |  | 46.3 µM and 43.1 µM | < 4 | 
13 | CCOc1cc(/C=C/c2ncc(C(=O)O)s2)ccc1O |  | 15.5 µM and 21.9 µM | 4.099 and 4.094 | 
14 | CCc1nc(CN2CCCN(C(=O)CCc3ccco3)CC2)cs1 |  | > 100 µM | < 4 | 
15 | c1ccc2sc(N3CCOC(Cn4cccn4)C3)nc2c1 (centres undefined) |  | 18 µM and 17.7 µM | 4.135 and 4.203 | 
16 | Cc1nc(CN2CCOC(CNc3cccnn3)C2)oc1C (centres undefined) |  | > 100 µM | < 4 | 

Row | SMILES | pIC50 [1] | IC50 (Proteasome subunit beta) | pIC50 [2] | also measured
17 | CCC(C)NC(=O)NCCCn1nc2ccccn2c1=O (centres undefined) | < 4.21 |  |  | IC50 (Histidine--tRNA ligase): > 100 µM
18 | OCC1CCCN1c1cc(NCc2ccc(Cl)s2)ncn1 (centres undefined) | 4.462 and 4.49 |  |  | 
19 | Cc1nc(CN2CCCC(N(C)Cc3cscn3)C2)no1 (centres undefined) |  | 34.8 µM and 26.4 µM | < 4 | 
20 | Cc1nc(C)n(C2CCCN(C(=O)c3ccc(N(C)C)nn3)C2)n1 (centres undefined) | < 4.21 |  |  | 
21 | CC1CN(CC2CCCCC2)CCN1c1ccc2nncn2n1 (centres undefined) | 4.49 and 4.459 |  |  | IC50 [5]: > 29.5 µM; IC50 (ClpP1P2): > 100 µM
22 | CCc1nnc2n1CCN(Cc1csc(-c3ccc(C)o3)n1)C2 |  | > 100 µM | < 4 | 
23 | COc1cccc(-c2nc(CNCCn3cccn3)cs2)c1 |  | 13.4 µM and 11.8 µM | 4.359 and 4.346 | 
24 | Cc1ccc(NCc2cncc3c2CCN(C(=O)C2CC=CC2)C3)nn1.Cl |  | > 100 µM | < 4 | 
25 | Cl.c1ccc(-c2ccc(C3CNCCO3)nc2)cc1 (centres undefined) |  | 13.7 µM and 13 µM | 4.18 and 4.164 | 
26 | COc1cccc(-c2noc(C3CCN(Cc4cccs4)C3)n2)c1.Cl (centres undefined) |  | 13.9 µM and 12.6 µM | 4.852 and 4.875 | 
27 | COc1c(CNC2CCSc3ccc(F)cc32)c(C)nn1C.Cl (centres undefined) | 4.845 and 5.142 |  |  | IC50 (Wolbachia pipientis): > 10 µM
28 | Cc1ccc(N2CC[C@H]3O[C@@H](C(=O)NCc4ccco4)CC[C@H]32)nn1.O=C(O)C(F)(F)F |  | > 100 µM | < 4 | 
29 | O=C(NCCCN1CCOCC1)c1ccn(-c2ccc3ccccn23)n1.O=C(O)C(F)(F)F |  | > 100 µM | < 4 | 
30 | CO[C@@H]1CN(Cc2scnc2C)[C@@H]2CCCO[C@@H]21.O=C(O)C(F)(F)F.O=C(O)C(F)(F)F |  | 8.6 µM and 10.8 µM | < 4 | IC50 (ClpP1P2): > 100 µM
31 | COCCN1CCc2cc(C(=O)NCC3CC3)c(NC(C)C)nc2CC1.O=C(O)C(F)(F)F.O=C(O)C(F)(F)F | 5.014 and 5.099 |  |  | IC50 [6]: 18.4 µM and 14.5 µM; IC50 (ClpP1P2): > 100 µM
